Here are results for 5 molecules from PMC3433420 (PLoS ONE, 2012).

One test concerns the target T1, HSH2D SH2 domain (Homo sapiens, UniProt Q96JZ2).
T1 sequence (Q96JZ2 34-125 limits assumed): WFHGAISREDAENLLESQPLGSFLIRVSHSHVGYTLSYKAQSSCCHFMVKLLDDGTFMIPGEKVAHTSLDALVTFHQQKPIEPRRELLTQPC
The test can be described thus: FP saturation binding assay.

The target in test [1] is T2, PLCG1-NC tandem SH2 domains (Homo sapiens, UniProt P19174).
T2 construct: the tandem protein was included in our analysis with all internal amino acids linking the domains; 6X His; thioredoxin; made in house; host or cells: E. coli BL21(DE3)pLysS
T2 sequence (P19174 550-756 limits assumed): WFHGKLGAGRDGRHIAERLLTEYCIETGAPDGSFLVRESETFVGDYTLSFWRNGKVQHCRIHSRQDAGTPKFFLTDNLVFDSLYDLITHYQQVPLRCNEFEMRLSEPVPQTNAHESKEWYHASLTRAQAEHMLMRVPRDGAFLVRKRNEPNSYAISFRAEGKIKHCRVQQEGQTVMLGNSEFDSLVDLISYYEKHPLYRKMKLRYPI
The test can be described thus: FP saturation binding assay. The following applies: Protein PLCG1-NC; FP saturation binding, high-confidence ErbB interactions; mean over replicate hits.

The target in the next test is T3, GRAP2 SH2 domain (Homo sapiens, UniProt O75791).
T3 sequence (O75791 58-149 limits assumed): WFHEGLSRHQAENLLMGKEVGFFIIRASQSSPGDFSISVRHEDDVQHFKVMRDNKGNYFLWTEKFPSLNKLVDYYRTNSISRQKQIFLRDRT
In words: FP saturation binding assay. The following applies: for share of the ErbB1 binding FE for GRAP2: free energy from FP KDs as percentage of total receptor recruitment (Figure S16).

A further test addresses T4, SH2D1A SH2 domain (Homo sapiens, UniProt O60880).
T4 sequence (O60880 6-104 limits assumed): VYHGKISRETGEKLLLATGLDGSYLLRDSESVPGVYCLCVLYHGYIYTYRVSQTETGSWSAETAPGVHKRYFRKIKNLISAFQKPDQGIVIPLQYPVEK
The test can be described thus: FP saturation binding assay.

The target of a further test is GRB2 SH2 domain (Homo sapiens, UniProt P62993). The test can be described thus: FP saturation binding assay. The following applies: for share of the ErbB1 binding FE for GRB2: free energy from FP KDs as percentage of total receptor recruitment (Figure S16).
The target in a further test is T5, RASA1-N SH2 domain (Homo sapiens, UniProt P20936).
T5 sequence (P20936 181-272 limits assumed): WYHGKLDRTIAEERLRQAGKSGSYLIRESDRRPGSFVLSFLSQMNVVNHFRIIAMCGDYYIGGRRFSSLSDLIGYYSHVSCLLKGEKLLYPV
In words: FP saturation binding assay.

In another test the target is T6, PIK3R3-C SH2 domain (Homo sapiens, UniProt Q92569).
T6 construct: thioredoxin; made in house; host or cells: E. coli BL21(DE3)pLysS
In words: biochemical. The following applies: protein PIK3R3-C; high-confidence ErbB interactions; mean of replicate hits. Type of test: binding.

The next test has as its target T7, LCK SH2 domain (Homo sapiens, UniProt P06239).
T7 construct: 93 SH2 and 2 PTB domain-containing constructs; 6X His; thioredoxin; made in house; host or cells: E. coli BL21(DE3)pLysS
The test can be described thus: FP saturation binding assay. The following applies: protein LCK; high-confidence ErbB interactions; mean of replicate hits. Put shortly: (§1)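 KD values come from least-squares fits of fluorescence polarization (ex 530, em 555 nm), corrected for thioredoxin nonspecific binding and plate baseline, with outliers pruned. Fixed 10 nM labeled peptide met a 0.002–10 µM protein series for 20 min at room temperature in HEPES/KCl/Tween/DTT buffer, pH 7.8.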

Another test has as its target T8, PTK6 SH2 domain (Homo sapiens, UniProt Q13882).
T8 construct: from the PTK6 SH2 domain; 6X His; thioredoxin; made in house; host or cells: E. coli BL21(DE3)pLysS
In words: FP saturation binding assay. The following applies: protein PTK6; high-confidence ErbB interactions; mean of replicate hits. In a few lines:
as §1

Another test deals with SH2 and PTB domains. The settings on record: ref Jones et al. 2006 / Kaushansky et al. Mol Biosys 2008 / Kaushansky et al. Chem and Biol 2008, cited from earlier work. From the text: Supplement pone.0044471.s022.xlsx, sheet "Most recent PM interactions" | column: Kd || Supplement pone.0044471.s022.xlsx, sheet "All original PM interactions" | column: Kd

Like-named read-outs stand apart in the source and are kept apart here. Residues, ends and D or L forms follow the SMILES beside them.

GRB2 SH2 domain, sequence (P62993 60-152 limits assumed): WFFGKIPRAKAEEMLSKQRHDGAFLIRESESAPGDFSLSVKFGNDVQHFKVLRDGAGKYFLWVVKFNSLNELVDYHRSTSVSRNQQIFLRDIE
T7 sequence (P06239 127-224 limits assumed): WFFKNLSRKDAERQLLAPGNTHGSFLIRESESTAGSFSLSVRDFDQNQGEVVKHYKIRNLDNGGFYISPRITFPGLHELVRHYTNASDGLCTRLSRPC
T8 sequence (Q13882 78-170 limits assumed): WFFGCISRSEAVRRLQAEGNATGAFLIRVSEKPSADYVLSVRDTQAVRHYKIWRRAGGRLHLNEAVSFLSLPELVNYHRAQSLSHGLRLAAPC

Regarding `CC(C)C[C@H](NC(=O)[C@H](Cc1ccc(OP(=O)(O)O)cc1)NC(=O)[C@H](CCC(=O)O)NC(=O)[C@@H]1CCCN1C(=O)[C@H](CC(N)=O)NC(=O)CN)C(=O)N[C@@H](CC(N)=O)C(=O)N[C@H](C(=O)N[C@H](C(=O)N[C@@H](CCC(N)=O)C(=O)N1CCC[C@H]1C(=O)N[C@H](C(=O)N[C@@H](CC(=O)O)C(=O)O)[C@@H](C)O)C(C)C)[C@@H](C)O` [ErbB1 1138 13-mer] (HELM PEPTIDE1{G.N.P.E.[O=C([C@H](Cc1ccc(OP(=O)(O)O)cc1)N[*:1])[*:2]].L.N.T.V.Q.P.T.D}$$$$V2.0), the Kd (commonly the free concentration of one partner at which half of the binding sites on the other are occupied at equilibrium, for simple one-to-one binding) came to 3410 nM on HSH2D SH2 domain, 5350 nM in test [1], 4820 nM on GRAP2 SH2 domain and 9440 nM on SH2D1A SH2 domain.

With `CC(C)C[C@H](NC(=O)[C@@H]1CCCN1)C(=O)N[C@H](C(=O)N[C@@H](CS)C(=O)N[C@@H](CO)C(=O)N1CCC[C@H]1C(=O)N[C@@H](CCC(N)=O)C(=O)N1CCC[C@H]1C(=O)N[C@@H](CCC(=O)O)C(=O)N[C@@H](Cc1ccc(OP(=O)(O)O)cc1)C(=O)N[C@H](C(=O)N[C@@H](CC(N)=O)C(=O)N[C@@H](CCC(N)=O)C(=O)N1CCC[C@H]1C(=O)N[C@@H](CC(=O)O)C(=O)N[C@H](C(=O)N[C@@H](CCCNC(=N)N)C(=O)N[C@@H](CC(=O)O)C(=O)O)C(C)C)C(C)C)[C@@H](C)O` [ErbB2 1139 18-mer] (HELM PEPTIDE1{P.L.T.C.S.P.Q.P.E.[O=C([C@H](Cc1ccc(OP(=O)(O)O)cc1)N[*:1])[*:2]].V.N.Q.P.D.V.R.D}$$$$V2.0), the values for the equilibrium dissociation constant (Kd) at GRB2 SH2 domain, on HSH2D SH2 domain and at GRAP2 SH2 domain were 1380 nM, 2820 nM and 560 nM, respectively.

`CC(C)C[C@H](NC(=O)[C@H](CO)NC(=O)[C@H](Cc1c[nH]cn1)NC(=O)[C@H](CC(N)=O)NC(=O)[C@H](Cc1c[nH]c2ccccc12)NC(=O)[C@H](Cc1ccc(OP(=O)(O)O)cc1)NC(=O)[C@H](CC(=O)O)NC(=O)[C@@H]1CCCN1C(=O)[C@H](CC(N)=O)NC(=O)[C@@H](N)CC(=O)O)C(=O)N1CCC[C@H]1C(=O)N1CCC[C@H]1C(=O)N[C@@H](CC(=O)O)C(=O)O` [ErbB4 1242 13-mer] (HELM PEPTIDE1{D.N.P.D.[O=C([C@H](Cc1ccc(OP(=O)(O)O)cc1)N[*:1])[*:2]].W.N.H.S.L.P.P.D}$$$$V2.0): the Kd at HSH2D SH2 domain turned out to be 7370 nM; at RASA1-N SH2 domain, 5030 nM; on PIK3R3-C SH2 domain, 8290 nM; at LCK SH2 domain it was 4460 nM; at PTK6 SH2 domain, 2760 nM.

Turning to GNPEpYLNTVQPTd [ErbB1 pY1138], on GRB2 SH2 domain, the “share of the ErbB1 binding FE for GRB2” value was determined as 50%. In addition, the equilibrium dissociation constant (Kd) on SH2 and PTB domains (protein ABL2) was 85 nM; at SH2 and PTB domains (protein GRB2), 720 nM; on SH2 and PTB domains (protein ITK), 1760 nM; at SH2 and PTB domains (protein NCK2), 330 nM; at SH2 and PTB domains (protein PIK3R1-NC), 1570 nM; on SH2 and PTB domains (protein PIK3R2-N) it was 760 nM. Besides, the Kd on SH2 and PTB domains (protein PIK3R2-NC) was 860 nM; at SH2 and PTB domains (protein PIK3R3-N), 840 nM; at SH2 and PTB domains (protein PIK3R3-NC) it was 1690 nM; on SH2 and PTB domains (protein RASA1-N), 390 nM; at SH2 and PTB domains (protein SHC1-PTB), 130 nM; on SH2 and PTB domains (protein VAV2), 370 nM. Also, at SH2 and PTB domains (protein ZAP70-NC), the Kd was 1140 nM. In addition, at GRAP2 SH2 domain, the “share of the ErbB1 binding FE for GRAP2” value is on record as 50%.

Regarding PVPEpYINQSVPKd [ErbB1 pY1092], the “share of the ErbB1 binding FE for GRB2” value on GRB2 SH2 domain is 50%. The Kd was 920 nM at SH2 and PTB domains (protein ABL1); 150 nM on SH2 and PTB domains (protein ABL2); 300 nM at SH2 and PTB domains (protein BLK); 200 nM on SH2 and PTB domains (protein GRB2); 1300 nM at SH2 and PTB domains (protein GRB10); 220 nM on SH2 and PTB domains (protein ITK). In addition, the Kd is 1100 nM at SH2 and PTB domains (protein NCK2); 1080 nM at SH2 and PTB domains (protein PIK3R1-N); 670 nM at SH2 and PTB domains (protein PIK3R1-NC); 450 nM at SH2 and PTB domains (protein PIK3R2-N); 1410 nM on SH2 and PTB domains (protein PIK3R2-NC); 510 nM on SH2 and PTB domains (protein PIK3R3-N). The Kd at SH2 and PTB domains (protein PIK3R3-NC) is 1020 nM; on SH2 and PTB domains (protein PLCG2-NC), 1630 nM; at SH2 and PTB domains (protein RASA1-N), 180 nM; on SH2 and PTB domains (protein SRC), 1790 nM; at SH2 and PTB domains (protein SYK-C), 1920 nM; on SH2 and PTB domains (protein SYK-NC), 910 nM. For the same molecule, the Kd at SH2 and PTB domains (protein VAV2) was 540 nM; at SH2 and PTB domains (protein YES1), 340 nM. In addition, the “share of the ErbB1 binding FE for GRAP2” value on GRAP2 SH2 domain is 50%.
